Assays:
[1] = biological target: MAPK9 (human) (UniProt P45984)
[2] = biological target: PDPK1 (human) (UniProt O15530)
[3] = biological target: PRKACA (human) (UniProt P17612)
[4] = biological target: TAOK1 (human) (UniProt Q7L7X3); assay: KINOMEscan competition binding; conditions: compound 1.0 µM
[5] = biological target: BMPR1A (human) (UniProt P36894); assay: KINOMEscan competition binding; conditions: compound 1.0 µM
[6] = biological target: AKT1 (human) (UniProt P31749); assay: SelectScreen, TR FRET; conditions: compound 1.0 µM
[7] = biological target: EPHA1 (human) (UniProt P21709); assay: SelectScreen, TR FRET; conditions: compound 1.0 µM
[8] = biological target: PDGFRA (human) (UniProt P16234); assay: SelectScreen, TR FRET; conditions: compound 1.0 µM
[9] = biological target: AURKA (human) (UniProt O14965); assay: SelectScreen, TR FRET; conditions: compound 1.0 µM
[10] = biological target: KDR (human) (UniProt P35968); assay: SelectScreen, TR FRET; conditions: compound 1.0 µM
[11] = biological target: PDGFRB (human) (UniProt P09619); assay: SelectScreen, TR FRET; conditions: compound 1.0 µM
[12] = biological target: CHEK2 (human) (UniProt O96017); assay: SelectScreen, TR FRET; conditions: compound 1.0 µM
[13] = biological target: FLT4 (human) (UniProt P35916); assay: SelectScreen, TR FRET; conditions: compound 1.0 µM
[14] = biological target: PDPK1 (human) (UniProt O15530); assay: SelectScreen, TR FRET; conditions: compound 1.0 µM
[15] = biological target: TAOK2 (human) (UniProt Q9UL54); assay: KINOMEscan competition binding; conditions: compound 10.0 µM
[16] = biological target: MYLK3 (human) (UniProt Q32MK0); assay: KINOMEscan competition binding
[17] = biological target: MAP3K12 (human) (UniProt Q12852); assay: KINOMEscan competition binding
[18] = biological target: TNK2 (human) (UniProt Q07912); assay: KINOMEscan competition binding
[19] = system: CPK1 (P.falciparum); assay: KINOMEscan competition binding; conditions: compound 10.0 µM
[20] = biological target: CAMK1G (human) (UniProt Q96NX5); assay: KINOMEscan competition binding; conditions: compound 10.0 µM
[21] = biological target: CRK2 (P.falciparum) (UniProt P61075); assay: KINOMEscan competition binding; conditions: compound 10.0 µM
[22] = biological target: CSNK1A1L (human) (UniProt Q8N752); assay: KINOMEscan competition binding
[23] = biological target: PRKACA (human) (UniProt P17612); assay: KINOMEscan competition binding
[24] = biological target: SBK1 (human) (UniProt Q52WX2); assay: KINOMEscan competition binding

Chain of PDPK1 (human) (O15530 whole entry, looked up): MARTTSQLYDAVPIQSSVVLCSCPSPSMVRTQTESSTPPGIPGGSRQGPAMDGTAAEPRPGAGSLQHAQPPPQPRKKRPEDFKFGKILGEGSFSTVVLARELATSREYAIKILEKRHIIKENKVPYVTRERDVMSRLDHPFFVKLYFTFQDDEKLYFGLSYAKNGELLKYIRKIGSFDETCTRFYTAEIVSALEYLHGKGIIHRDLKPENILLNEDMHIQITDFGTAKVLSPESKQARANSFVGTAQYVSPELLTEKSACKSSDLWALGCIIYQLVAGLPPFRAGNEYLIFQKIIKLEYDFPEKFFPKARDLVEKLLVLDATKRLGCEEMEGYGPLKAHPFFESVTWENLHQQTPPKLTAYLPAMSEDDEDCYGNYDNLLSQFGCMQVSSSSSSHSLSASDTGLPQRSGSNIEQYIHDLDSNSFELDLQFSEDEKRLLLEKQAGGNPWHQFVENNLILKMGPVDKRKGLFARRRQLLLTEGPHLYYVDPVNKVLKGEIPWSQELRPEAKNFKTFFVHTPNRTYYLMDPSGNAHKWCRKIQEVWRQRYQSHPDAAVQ
Chain of TNK2 (human) (Q07912 whole entry, looked up): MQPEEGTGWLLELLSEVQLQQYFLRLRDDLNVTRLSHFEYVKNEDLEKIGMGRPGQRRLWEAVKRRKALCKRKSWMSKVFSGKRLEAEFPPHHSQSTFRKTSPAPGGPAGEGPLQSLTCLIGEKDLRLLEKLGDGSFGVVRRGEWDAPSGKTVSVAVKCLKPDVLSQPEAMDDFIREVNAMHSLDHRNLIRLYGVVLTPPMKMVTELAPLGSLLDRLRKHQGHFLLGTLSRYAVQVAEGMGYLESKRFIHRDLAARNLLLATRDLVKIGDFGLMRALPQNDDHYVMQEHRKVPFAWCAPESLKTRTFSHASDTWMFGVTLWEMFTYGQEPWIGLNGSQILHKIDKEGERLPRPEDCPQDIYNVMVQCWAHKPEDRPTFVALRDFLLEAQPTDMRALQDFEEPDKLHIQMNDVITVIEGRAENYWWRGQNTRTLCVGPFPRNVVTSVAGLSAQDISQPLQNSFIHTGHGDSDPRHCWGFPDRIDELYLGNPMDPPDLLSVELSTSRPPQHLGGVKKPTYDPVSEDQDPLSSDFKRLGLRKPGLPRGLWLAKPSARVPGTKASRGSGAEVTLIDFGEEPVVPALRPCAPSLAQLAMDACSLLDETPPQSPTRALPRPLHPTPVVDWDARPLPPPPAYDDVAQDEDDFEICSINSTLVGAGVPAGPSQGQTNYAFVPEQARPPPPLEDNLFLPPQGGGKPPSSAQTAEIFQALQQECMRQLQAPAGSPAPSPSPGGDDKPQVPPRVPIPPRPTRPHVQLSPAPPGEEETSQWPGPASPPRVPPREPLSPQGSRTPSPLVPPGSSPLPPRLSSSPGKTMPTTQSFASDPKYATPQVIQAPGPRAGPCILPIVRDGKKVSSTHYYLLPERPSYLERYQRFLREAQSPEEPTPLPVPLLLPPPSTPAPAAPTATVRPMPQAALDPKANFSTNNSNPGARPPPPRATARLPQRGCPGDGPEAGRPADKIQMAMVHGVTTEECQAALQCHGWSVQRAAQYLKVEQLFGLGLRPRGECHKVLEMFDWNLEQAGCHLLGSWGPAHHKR
Chain of MYLK3 (human) (Q32MK0 whole entry, looked up): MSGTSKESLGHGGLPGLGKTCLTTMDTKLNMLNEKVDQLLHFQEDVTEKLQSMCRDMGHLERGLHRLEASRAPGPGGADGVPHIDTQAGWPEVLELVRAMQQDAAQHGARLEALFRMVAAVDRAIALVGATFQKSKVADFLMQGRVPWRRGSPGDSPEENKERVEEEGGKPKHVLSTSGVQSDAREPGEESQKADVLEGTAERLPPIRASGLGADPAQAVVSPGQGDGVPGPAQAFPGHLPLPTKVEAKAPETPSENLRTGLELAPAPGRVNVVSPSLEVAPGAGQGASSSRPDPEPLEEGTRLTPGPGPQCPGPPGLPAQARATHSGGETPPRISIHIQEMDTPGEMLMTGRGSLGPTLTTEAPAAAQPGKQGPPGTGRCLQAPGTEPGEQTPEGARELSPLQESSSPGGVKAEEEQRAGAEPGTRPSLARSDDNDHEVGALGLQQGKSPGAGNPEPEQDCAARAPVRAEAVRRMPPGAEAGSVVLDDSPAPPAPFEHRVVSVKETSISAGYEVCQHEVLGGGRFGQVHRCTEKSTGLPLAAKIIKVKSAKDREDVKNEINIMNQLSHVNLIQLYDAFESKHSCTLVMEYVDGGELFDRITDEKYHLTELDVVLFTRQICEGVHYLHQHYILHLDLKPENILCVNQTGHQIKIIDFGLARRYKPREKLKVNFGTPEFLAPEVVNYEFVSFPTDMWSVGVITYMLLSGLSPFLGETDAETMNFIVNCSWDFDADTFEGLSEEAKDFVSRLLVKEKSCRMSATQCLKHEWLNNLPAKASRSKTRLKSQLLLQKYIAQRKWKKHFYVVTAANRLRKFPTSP
Chain of MAP3K12 (human) (Q12852 whole entry, looked up): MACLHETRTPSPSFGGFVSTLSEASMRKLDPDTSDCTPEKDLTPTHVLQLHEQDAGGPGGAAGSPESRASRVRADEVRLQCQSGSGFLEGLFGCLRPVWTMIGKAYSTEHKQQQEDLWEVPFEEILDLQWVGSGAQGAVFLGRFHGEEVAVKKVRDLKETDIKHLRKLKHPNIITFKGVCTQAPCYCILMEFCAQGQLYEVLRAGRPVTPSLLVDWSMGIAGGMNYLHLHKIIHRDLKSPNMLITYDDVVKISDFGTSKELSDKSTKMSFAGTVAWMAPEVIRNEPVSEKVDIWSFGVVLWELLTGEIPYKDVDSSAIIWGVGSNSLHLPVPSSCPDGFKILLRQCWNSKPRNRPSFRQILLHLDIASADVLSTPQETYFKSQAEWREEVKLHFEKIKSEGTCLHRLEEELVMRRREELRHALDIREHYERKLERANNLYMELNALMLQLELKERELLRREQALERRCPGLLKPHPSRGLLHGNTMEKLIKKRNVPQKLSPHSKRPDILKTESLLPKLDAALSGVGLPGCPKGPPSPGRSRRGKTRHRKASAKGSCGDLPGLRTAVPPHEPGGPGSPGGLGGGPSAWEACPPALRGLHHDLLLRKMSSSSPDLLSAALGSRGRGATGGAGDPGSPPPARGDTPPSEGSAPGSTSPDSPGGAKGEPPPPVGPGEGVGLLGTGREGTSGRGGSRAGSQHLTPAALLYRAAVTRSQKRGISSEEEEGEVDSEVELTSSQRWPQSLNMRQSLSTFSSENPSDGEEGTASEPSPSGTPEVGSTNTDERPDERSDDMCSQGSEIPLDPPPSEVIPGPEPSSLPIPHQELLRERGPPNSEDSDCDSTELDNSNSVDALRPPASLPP
Chain of KDR (human) (P35968 whole entry, looked up): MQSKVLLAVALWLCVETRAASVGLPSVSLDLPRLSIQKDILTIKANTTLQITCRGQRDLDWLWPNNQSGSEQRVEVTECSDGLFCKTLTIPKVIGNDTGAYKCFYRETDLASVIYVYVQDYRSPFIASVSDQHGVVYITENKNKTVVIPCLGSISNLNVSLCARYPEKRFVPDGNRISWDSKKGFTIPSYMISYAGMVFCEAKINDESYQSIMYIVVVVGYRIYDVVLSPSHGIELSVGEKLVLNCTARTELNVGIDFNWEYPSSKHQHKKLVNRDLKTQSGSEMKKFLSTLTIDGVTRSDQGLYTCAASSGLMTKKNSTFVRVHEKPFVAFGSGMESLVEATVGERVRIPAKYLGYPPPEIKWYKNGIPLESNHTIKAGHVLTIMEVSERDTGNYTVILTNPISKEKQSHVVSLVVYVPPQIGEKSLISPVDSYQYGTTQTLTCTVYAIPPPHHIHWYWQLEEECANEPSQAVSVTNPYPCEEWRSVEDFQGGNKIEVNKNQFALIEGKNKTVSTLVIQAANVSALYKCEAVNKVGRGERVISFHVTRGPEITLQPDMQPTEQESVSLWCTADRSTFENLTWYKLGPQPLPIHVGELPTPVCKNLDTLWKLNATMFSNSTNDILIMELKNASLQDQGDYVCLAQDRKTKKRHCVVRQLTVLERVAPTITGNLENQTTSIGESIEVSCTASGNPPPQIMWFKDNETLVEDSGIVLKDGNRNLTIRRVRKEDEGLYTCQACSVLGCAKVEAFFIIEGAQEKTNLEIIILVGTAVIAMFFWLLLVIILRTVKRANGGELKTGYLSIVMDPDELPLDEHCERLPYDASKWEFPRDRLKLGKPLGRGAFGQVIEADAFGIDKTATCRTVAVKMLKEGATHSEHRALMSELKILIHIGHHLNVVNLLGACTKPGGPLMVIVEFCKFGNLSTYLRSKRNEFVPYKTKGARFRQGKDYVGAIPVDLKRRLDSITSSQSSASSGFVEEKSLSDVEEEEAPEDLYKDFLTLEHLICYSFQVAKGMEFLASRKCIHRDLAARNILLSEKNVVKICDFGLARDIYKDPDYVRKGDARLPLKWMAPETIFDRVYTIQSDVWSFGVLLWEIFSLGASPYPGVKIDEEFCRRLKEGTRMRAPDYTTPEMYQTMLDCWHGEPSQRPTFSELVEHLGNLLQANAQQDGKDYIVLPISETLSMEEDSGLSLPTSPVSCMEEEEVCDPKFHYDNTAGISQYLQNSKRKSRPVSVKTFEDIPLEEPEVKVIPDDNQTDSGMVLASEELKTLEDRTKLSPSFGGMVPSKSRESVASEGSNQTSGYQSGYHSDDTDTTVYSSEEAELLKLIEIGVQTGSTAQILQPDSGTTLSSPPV
Chain of MAPK9 (human) (P45984 whole entry, looked up): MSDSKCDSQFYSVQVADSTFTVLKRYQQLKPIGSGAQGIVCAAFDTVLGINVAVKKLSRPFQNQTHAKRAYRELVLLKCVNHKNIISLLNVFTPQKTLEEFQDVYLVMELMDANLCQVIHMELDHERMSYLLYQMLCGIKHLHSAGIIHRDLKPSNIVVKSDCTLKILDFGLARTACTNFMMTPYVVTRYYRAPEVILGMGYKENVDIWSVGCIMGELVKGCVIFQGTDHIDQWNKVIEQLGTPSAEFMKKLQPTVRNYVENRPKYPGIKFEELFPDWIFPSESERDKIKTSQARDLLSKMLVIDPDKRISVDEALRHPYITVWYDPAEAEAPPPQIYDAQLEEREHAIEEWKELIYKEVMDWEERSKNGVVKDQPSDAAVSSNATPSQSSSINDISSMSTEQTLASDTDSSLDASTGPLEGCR

Compound `Cc1c(C(=O)N2CCOc3ccc(-c4ccc(N)nc4)cc3C2)ccc(S(C)(=O)=O)c1F` has an IC50 [1] greater than 10 µM, an IC50 [2] greater than 10 µM and an IC50 [3] greater than 10 µM.

`Nc1ccccc1Nc1ccc2c(c1)CCc1ccccc1C2=O` showed a kinase still bound, per cent of control [4] of 100% and a kinase still bound, per cent of control [5] of 100%.

For `CC(C)(C)c1cc(NC(=O)NCc2ccc(-c3cc(NC(=O)c4ccc(OCCN5CCOCC5)cc4)[nH]n3)cc2)no1`, the inhibition [6] was -17%, the inhibition [7] was -20% and the inhibition [8] was -85%. The inhibition [9] was -48%, the inhibition [10] was -99% and the inhibition [11] was -97%. The inhibition [12] was -10% and the inhibition [13] was -86%.

Compound `CC(C)(O)c1ccc(-c2cnc3c(n2)N(CC2CCOCC2)CC(=O)N3)cn1` has a residual activity [14] of 100%.

`O=C(Nc1cccnc1)c1cc(-c2ccnc(F)c2)ccc1OCc1ccccc1` gave a kinase still bound, per cent of control [15] of 100%, a kinase still bound, per cent of control ([16]; compound 10.0 µM) of 100% and a residual activity ([17]; compound 10.0 µM) of 100%. For the same compound, the kinase still bound, per cent of control ([18]; compound 10.0 µM) was 100%, the kinase still bound, per cent of control [19] was 100% and the kinase still bound, per cent of control [20] was 100%. The kinase still bound, per cent of control [21] was 100%.

`CO[C@@H]1[C@H](N(C)C(=O)c2ccccc2)C[C@H]2O[C@]1(C)n1c3ccccc3c3c4c(c5c6ccccc6n2c5c31)C(=O)NC4O` (some centres not stated) gave a Kd [16] greater than 10 µM, a Kd [17] greater than 10 µM and a Kd [22] greater than 10 µM. It also gave a Kd [18] of 0.015 µM, a Kd [23] greater than 10 µM and a Kd [24] greater than 10 µM.
